In patent publication US9980976B2, “Use of REDD1 inhibitors to dissociate therapeutic and adverse atrophogenic effects of glucocorticoid receptor agonists” (Northwestern University, priority 2015, dated 2018):

How the values were obtained:
REDD1 [1] = assay: REDD1 expression in organotypic raft cultures (Q-PCR, Western blot); type: cell-based, human; conditions: control pGIPZ ORCs, short-term (6 h) and chronic (7 days) CBP
Procedure: Three-dimensional (3-D) organotypic raft cultures (ORC) of human epidermis were made as described in Getsios et al (2009). Briefly, neonatal human epidermal keratinocytes (NHEK) were infected with shRNA- and pGIPZ-expressing lentiviruses followed, 48 h later, by selection for puromycin (2 μg/ml) resistance. Selected keratinocyte cultures were reseeded onto collagen gels with embedded J2-3T3 fibroblasts and cultured at the air-liquid interface as previously described for 3 days to allow the initial phase of epidermis formation. The standard ORC medium contains high 5×10^−7 M hydrocortisone. In our experiments, ORC were cultured in the medium with 10^−8 M hydrocortisone during first 3 days and then were treated with glucocorticoid CBP (5×10^−6 M) or vehicle control (0.05% DMSO) for 7 days. Rafts were treated with BrdU (10^−7 M) 1 h before harvesting and fixed in formalin. […]
Total RNA from murine epidermis, whole human skin, and cell cultures was isolated with RiboPure kit (Ambion, Life Technologies, Grand Island, N.Y., USA). […] The gene expression was assessed using semi-quantitative two-step RT-PCR and quantitative Q-PCR. […] For semi-quantitative PCRs, Taq DNA polymerase (Promega) was used, and PCR products were separated on 1.5% agarose gel and visualized using automated imaging system (Bio-Rad, Hercules, Calif., USA). […]

human skin = assay: Skin atrophy in human volunteers treated with topical glucocorticoid; type: in vivo; conditions: 0.05% cream daily, 2-week treatment
Procedure: (§1) Glucocorticoid CBP was applied topically as a 0.05% cream to the skin of right arm of healthy human volunteers (age 32-65) once or every 24 h for 2 weeks. Untreated left arm skin was used as control. Whole human skin samples were used for the molecular biological studies.
Quantification of the epidermal width and number of basal keratinocytes (as the readouts for skin atrophy and hypoplasia of raft epidermis) was performed in dorsal skin and ORC sections stained with H&E. The number of dermal cells was determined on sections stained with Masson's trichrome in the upper (papillary) dermis that is distinguishable from the lower (reticular) dermis (Driskell et al, 2013). At least 10 individual fields per slide with at least three samples in each experimental group were counted using Axioplan2 microscope software (Carl Zeiss). All measurements are presented as % to corresponding control.

[2] = test system: organotypic raft cultures of primary human epidermal keratinocytes (NHEK); assay: Hypoplasia/proliferation in 3-D organotypic raft cultures (ORC) of NHEK; type: cell-based; conditions: pGIPZ-infected ORCs, 7-day treatment with CBP 5 μM
Procedure: Three-dimensional (3-D) organotypic raft cultures (ORC) of human epidermis were made as described in Getsios et al (2009). Briefly, neonatal human epidermal keratinocytes (NHEK) were infected with shRNA- and pGIPZ-expressing lentiviruses followed, 48 h later, by selection for puromycin (2 μg/ml) resistance. Selected keratinocyte cultures were reseeded onto collagen gels with embedded J2-3T3 fibroblasts and cultured at the air-liquid interface as previously described for 3 days to allow the initial phase of epidermis formation. The standard ORC medium contains high 5×10^−7 M hydrocortisone. […]
Quantification of the epidermal width and number of basal keratinocytes (as the readouts for skin atrophy and hypoplasia of raft epidermis) was performed in dorsal skin and ORC sections stained with H&E. The number of dermal cells was determined on sections stained with Masson's trichrome in the upper (papillary) dermis that is distinguishable from the lower (reticular) dermis (Driskell et al, 2013). At least 10 individual fields per slide with at least three samples in each experimental group were counted using Axioplan2 microscope software (Carl Zeiss). […]
The numbers of BrdU+, p63+, and total number of basal keratinocytes were evaluated in 10 fields of view in each skin/ORC sample under the microscope. […]

REDD1 [3] = assay: REDD1 mRNA expression in human skin (RT-PCR); type: in vivo; conditions: human skin treated with CBP 0.05% cream for 24 h-2 weeks
Procedure: as §1
Total RNA from murine epidermis, whole human skin, and cell cultures was isolated with RiboPure kit (Ambion, Life Technologies, Grand Island, N.Y., USA). Total RNA from murine s.c. adipose was isolated with RNeasy Lipid Tissue Kit (Qiagen, Valencia, Calif., USA). The RNA samples were treated with TURBOT™ DNase (Ambion). The gene expression was assessed using semi-quantitative two-step RT-PCR and quantitative Q-PCR. Reverse transcription was performed using 1 μg RNA, random hexamers, and M-MLV reverse transcriptase (Invitrogen, Life Technologies), according to manufacturer instructions. The gene-specific primers were designed with NCBI Primer-BLAST (data not shown, see Baida et al., EMBO, 2015, at Supplementary Table S4). Q-PCR with SYBR Green detection was performed on the Applied Biosystems® 7000 Real-Time PCR instrument (Life Technologies). […] For semi-quantitative PCRs, Taq DNA polymerase (Promega) was used, and PCR products were separated on 1.5% agarose gel and visualized using automated imaging system (Bio-Rad, Hercules, Calif., USA). […]

GR = conditions: Schäcke et al, 2009; cited from earlier work

Structure (SMILES)	REDD1 mRNA and protein (REDD1 [1])	negative effect on basal keratinocytes (compared with FA-treated mice) (human skin)	decrease in number and proliferation (BrdU incorporation) of basal keratinocytes [2]	REDD1 mRNA (REDD1 [3])	anti-inflammatory effect (GR)	skin atrophy (GR)
CCC(=O)O[C@]1(C(=O)CCl)[C@@H](C)C[C@H]2[C@@H]3CCC4=CC(=O)C=C[C@]4(C)[C@@]3(F)[C@@H](O)C[C@@]21C [CBP, clobetasol propionate]	induced REDD1 mRNA and protein	less pronounced	25-40%	strongly up-regulated		
Cc1ccc2c(NC[C@](O)(CC(C)(C)c3cc(F)cc4c3OCC4)C(F)(F)F)cccc2n1 [ZK245186/mapracorat]					preserve the anti-inflammatory effect of glucocorticoids	do not induce skin atrophy
